Two molecules from patent US20030054411A1, “GPR motifs and uses thereof” (priority 2001, published 2003) can be followed below.

Assay [1] concerns pheromone response pathway. Description: β-galactosidase reporter assays in yeast strains expressing different Gα subunits. The class given is cell-based, Saccharomyces cerevisiae. The conditions noted are these: Gpa1, Gsα, Giα2, Giα3, Gα16 backgrounds. The source says:
(A) Bioactivity of cDNA #37 and 53 in yeast strains expressing different Gα subunits. The Gpa1, Giα2Gpa1(1-41), Giα3Gpa1(1-41) and Gα16Gpa1(1-41) yeast strains expressed similar amounts of G-protein as determined by immunoblotting with Gpa1-specific antisera. Each series of experiments include data obtained in the absence of Gα to indicate the signal obtained when the action of Gβγ is not limited by reformation of heterotrimer. Data are presented as the mean±S.E.M of three experiments with duplicate determinations. (B) Interaction of AGS2 and AGS3 with G-proteins. AGS2 and the bioactive AGS3 peptide (74 amino acids) beginning at the first in frame methionine were generated as GST-fusion proteins in bacteria and purified using a glutathione affinity matrix. AGS2 and AGS3 GST fusion proteins were incubated with G-protein subunits (Gα=60-80 nM, Gβγ=40 nM, fusion protein=˜300 nM, total volume=250 ul) for 12 hrs at 4° C. GDP=10 uM. […] Giα2 was generated in Sf9 cells as an amino terminal his6-tagged protein and was detected on membrane transfers using anti-Xpress antisera (Invitrogen). Bovine brain Gβγ was detected on membrane transfers with Gβ antisera. […]
Generation and screening of cDNA libraries. […] The cDNAs conferring such a response were considered positive and were further evaluated by epistasis experiments in different yeast strains, nucleotide sequencing and RNA blot analysis. […]
A general note: Reporter assays use an easily measured gene product as a stand-in for the process of interest.

The test system of assay [2] is pheromone response pathway. Description: Yeast expression cloning system, growth assay. The class given is cell-based, Saccharomyces cerevisiae. The conditions noted are these: for activity in the presence of Giα2 G204A mutant or RGS4: G204A Giα2 strain or RGS4 overexpression; for growth in yeast expression cloning system: Giα2 yeast strain, selective medium; for function in null Ste5 genetic background: yeast strain lacking Ste5. An excerpt:
(A) Three cDNA clones (#34, #37 and #53) were isolated from a screen of 1.1×10^6 yeast transformants based upon their ability to promote growth in a galactose-dependent manner in the yeast expression cloning system (5). B) Analysis of the cDNA clones in spot growth assays using yeast strains lacking STE20, STE5 or STE4. Control (Non-induced/no selection)—glucose media lacking uracil and tryptophan (UT). Non-induced/selection—glucose media lacking uracil/tryptophan/histidine (UTH) and containing the histidine analog aminotriazole (AT) at 1 mM. Induced/selection—galactose media lacking UTH and containing 1 mM AT. WT—wild type strain CY1316/1183. cDNA #34 was active in the absence of a functional STE5 and thus was not evaluated (black circles in key) in yeast strains lacking STE4 or STE20. For spot growth assays, ˜2,000 cells suspended in water were spotted on appropriate medium and the plates were incubated at 30° for 2 days prior to photography. Experiments in (A, B) were repeated three times with similar results.
(A) Bioactivity of cDNA #37 and 53 in yeast strains expressing different Gα subunits. The Gpa1, Giα2Gpa1(1-41), Giα3Gpa1(1-41) and Gα16Gpa1(1-41) yeast strains expressed similar amounts of G-protein as determined by immunoblotting with Gpa1-specific antisera. Each series of experiments include data obtained in the absence of Gα to indicate the signal obtained when the action of Gβγ is not limited by reformation of heterotrimer. Data are presented as the mean±S.E.M of three experiments with duplicate determinations. (B) Interaction of AGS2 and AGS3 with G-proteins. AGS2 and the bioactive AGS3 peptide (74 amino acids) beginning at the first in frame methionine were generated as GST-fusion proteins in bacteria and purified using a glutathione affinity matrix. AGS2 and AGS3 GST fusion proteins were incubated with G-protein subunits (Gα=60-80 nM, Gβγ=40 nM, fusion protein=˜300 nM, total volume=250 ul) for 12 hrs at 4° C. GDP=10 uM. GTPγS=10 uM plus 5 mM MgCl2. Proteins were then adsorbed to glutathione matrix and retained G-protein subunits identified by immunoblotting following gel electrophoresis. Giα2 was generated in Sf9 cells as an amino terminal his6-tagged protein and was detected on membrane transfers using anti-Xpress antisera (Invitrogen). Bovine brain Gβγ was detected on membrane transfers with Gβ antisera. Input refers to 20 ul of the incubation mixture. The results presented are representative of four separate experiments. […] C) Effect of G204A Giα2 substitution and RGS4 on the functionality of AGS proteins. The G204A Giα2 yeast strain and the system used for over expression of RGS4 are described in detail in reference 5. Protein expression was confirmed by immunoblotting. AGS 1 was discovered in a similar screen using a human liver cDNA library (5, 7). WT—wild type strain CY1316/1183 containing Giα2 as described for the original yeast screen. RGS4 was overexpressed in the CY1316/1183 yeast strain. Similar results were obtained in three experiments.
Generation and screening of cDNA libraries. The NG108-15 cell line was propagated as previously described (4). mRNA was prepared from twenty 100 mm confluent plates of cells and used to generate a cDNA library in the yeast expression vector pYES2. The library was constructed by standard procedures using reagents from Stratagene. Analysis of individual transformants indicated cDNA inserts ranging from 400 to 3000 nt with ˜70-80% of the transformants containing cDNA inserts. The primary transformants were then amplified by solid phase agarose growth for 48 hr and plasmid DNA isolated by column fractionation (Qiagen). The NG108-15 cDNA library was then screened for activators of the pheromone response pathway as described (5). We used a his3 far1 yeast strain containing a genomic integration of the FUS1p-HIS3 reporter construct and lacking both the native pheromone response receptor Ste3 and Gpa1 Gα subunit. […]

As to “AGS2: Activator of G-protein Signalling 2, protein identical to mouse Tctex1, isolated from NG108-15 cDNA library”, in assay [1], the “activity in yeast strains expressing different Gα subunits” value was “active in each of the genetic backgrounds except Gpa1”. Moreover, in assay [2], the “activity in the presence of Giα2 G204A mutant or RGS4” value is given as “still active”, the “growth in yeast expression cloning system” value was “promoted growth in a galactose-dependent manner”, the “function in null Ste5 genetic background” value is “did not function” and the “activity in yeast strains lacking Ste20 or Ste4” value is “inactive”.

B1: AGS3: Activator of G-protein Signalling 3; bioactive 74 amino acid fragment isolated in yeast screen, tested as GST fusion (protein)
chain: MLIKYQSSRIDDQRCPPPDVLPRGPTMPDEDFFSLIQRVQAKRMDEQRVDLAGSPDQEASGLPDPRQQCPPGAS
modifications: left off: a dimerising Fc or GST
Regarding B1, the “activity in yeast strains expressing different Gα subunits” value in assay [1] is “only active in the Giα2 and Giα3 genetic backgrounds”. For the same molecule, in assay [2], the “activity in the presence of Giα2 G204A mutant or RGS4” value is listed as “still active”, the “growth in yeast expression cloning system” value is listed as “promoted growth in a galactose-dependent manner”, the “function in null Ste5 genetic background” value was “did not function” and the “activity in yeast strains lacking Ste20 or Ste4” value was “inactive”.
